A melting point compilation (Tetko et al.; mined from patent text by program, amines drawn as free bases though some values may be those of a salt)

melting point [°C] | SMILES
203 to 208 | Cc1nccn1-c1cc(NC(=O)OC(C)(C)C)cc(C(F)(F)F)c1
84 to 85 | CC(=O)OC1Oc2ccc(OS(C)(=O)=O)cc2C1(C)C (configuration not stated)
170 to 172 | Cc1nn(C)c2c(-c3ccc(OC(F)(F)F)cc3)nc(-c3ccc(F)cc3)nc12
134 | CN(C)C(=O)c1cc(Cl)c(N)c(Cl)c1
204 to 206 | O=C(c1ccc(Br)cc1)N1CC(=O)N2CCc3ccccc3C2C1 (configuration not stated)
48.6 | CCCc1cccc(-c2nc(C(C)C)n(C)n2)n1
169 to 171 | CC(c1ccc(I)cc1)C(O)(Cn1cncn1)c1ccc(F)cc1F (configuration not stated)
172 to 174 | CCOC(=O)N1CCN(C=C2C(=O)Nc3cc(OC)c(OC)cc32)CC1
163 to 164 | O=P(O)(O)Cc1cccc(C(F)(F)F)c1
136 to 137 | CC(=O)c1cccc(NC(=O)C2CC2)c1
107 to 109 | CCCCOCCOc1ccc(-c2ccc3c(c2)C=C(C(=O)Nc2ccc(CSc4nnc(C)o4)cc2)CCN3CC(C)C)cc1
85.2 | Cc1cc(N)cc(C)c1NC(=O)CN1CCN(CCCC(c2ccc(F)cc2)c2ccc(F)cc2)CC1CO (configuration not stated)
68 to 69 | CC(=O)OC1C=C(C)C(=O)CC(C)(C)C1OC(C)=O (configuration not stated)
185 to 188 | N[C@@H](CSCCC1CCN(C(=O)OCc2ccccc2)CC1)C(=O)O
202 to 204 | Nc1ccc(C(=O)Nc2ccccc2-c2nnn[nH]2)cc1
98 to 101 | CC(C)(C)C(O)(Cn1cncn1)C1CC1c1ccc(Cl)cc1Cl (configuration not stated)
63.5 to 64.5 | CCCCCCCCCCCCCC(=O)NN(C)C
288 to 290 | CC1Cc2c(Cl)ccc3c(=O)c(C(=O)O)cn1c23 (configuration not stated)
129 | CCN(CC)c1ccc([PH](=O)c2ccc(N(CC)CC)cc2)cc1
75 to 76 | COCOC1CCC2(C)C(=CCC3C2CCC2(C)C(COCc4ccccc4)CCC32)C1 (configuration not stated)
66.5 to 68.1 | COC(=O)c1ccc(Cl)c(C=O)c1SC
139 to 140 | CC1=C(C)C(=O)N(c2ccc(Cl)c(C=C(Cl)C#N)c2)C1=O
177 to 181 | Cn1c2ccccc2c2c3c(c4c5ccccc5n(CCCCN)c4c21)C(=O)NC3=O
96 to 98 | COc1ccc(COCc2nccn2CCO)cc1
266 | O=C1OCCCCOC(=O)c2ccc(cc2)-c2ccc1cc2

melting point [°C] | SMILES
79 to 81 | N#CC(Cc1ccccn1)(C(N)=O)c1ccc([N+](=O)[O-])cc1 (configuration not stated)
108 | Cc1cc(-n2ccnc2)c2cccc(OCc3c(Cl)ccc(S(=O)(=O)N4CCC[C@H]4C(=O)NC4CC4)c3Cl)c2n1
168 to 171 | COc1ccc(C(=O)Nc2ccccc2)cc1NC(=S)Nc1cccc(C)c1
162 to 164 | COc1cc(OC)c(NC(=O)Nc2ccccc2)cc1O
107 | O=C(OCc1ccccc1)[C@@H](Cc1ccccc1)NS(=O)(=O)c1ccc2ccccc2c1
118 to 120 | CN1CCN(C(=O)Nc2cc(Br)ccc2N2CCc3cc(Br)ccc32)CC1
106 to 107 | CCOC(=O)C(=Cc1cccc([N+](=O)[O-])c1)C(=O)C(Cl)(Cl)Cl
175 to 177 | COc1ccc(-n2nc(Sc3cc(C)cc(C)c3)c(C)c(C#N)c2=O)cc1
118 to 119 | CC(C)C1Oc2ccccc2NC1=O (configuration not stated)
115 to 116 | CSc1nnc2ccc3ccccc3n12
36.3 | CCOC(=O)C=Cc1cccc(I)c1
189 to 199 | O=C1CCc2c(ccc3cc(O)ccc23)O1
195 | O=C(O)c1ccc(Cl)c2c1OCCO2
128 | O=C1NC(=O)C(Cc2ccc(OCCON=Cc3cccc(-c4ccccc4)c3)cc2)S1 (configuration not stated)
212 | Cc1ccc(C(=O)O)c(NC(=O)CCCCNC(=O)OC(C)(C)C)c1
37 to 39 | CC(C)NCC(O)COc1ccc(OCCn2cccn2)cc1 (configuration not stated)
146 | CCSc1cccc(OC(F)(F)F)c1S(N)(=O)=O
187 to 189 | O=C(O)Cn1c(=S)sc2ccccc21
133 | CC(=O)Nc1ccc(-c2cc(-c3c(-c4ccccn4)nc4ccccn34)ccn2)cc1
180 to 183 | CC(C)C1Sc2ccccc2NC(=O)C1N (configuration not stated)
200 to 203 | Cc1cc2c(cc1F)N(C(N)=O)C(=O)C2
140 to 141 | CC(C)(C)C(=O)Nc1cccc(N)n1
58 to 61 | COc1ccc(C(=O)c2ccsc2)cc1
170 to 173 | CCCCNC(=O)NS(=O)(=O)c1cccc2c1nnn2C
90 to 92 | CC(C)c1nc2c(c(-c3ccc(F)cc3)c1C(C)O)CCC2(C)C (configuration not stated)

melting point [°C] | SMILES
180 | CCOC(=O)C(=NOCC(N)=O)c1csc(NC(c2ccccc2)(c2ccccc2)c2ccccc2)n1
58 to 60 | CCCN(CCCCNc1ncc(Cc2ccncc2)c(=O)[nH]1)c1ccccn1
159 to 160 | N#Cc1cc(-c2ccccc2)[nH]c1Sc1ccccc1N
218 to 220 | CC(=O)N1N=C2C(=Cc3ccccc3)CS(=O)(=O)CC2C1c1ccccc1 (configuration not stated)
47.6 | C=CCCC[C@H]1CC[C@H](c2ccc(C(C)=O)cc2)CC1
30 to 31 | CCCOc1nsnc1S(C)(=O)=O
162 to 165 | Cc1nc(Nc2ccccc2)sc1C(=O)c1ccc(Cl)c([N+](=O)[O-])c1
132 | OCCNC(=S)C1(c2ccccn2)CCCS1 (configuration not stated)
249 to 253 | Cc1ccc2c(Cl)cc(S(=O)(=O)NCCc3ccc(N)cc3)c(O)c2n1
170 to 171 | COc1cccc2c(=O)c(C)c3sc4ccccc4nc-3c12
124 to 125 | CCCN(Cc1ccc(-c2ccccc2-c2nc(=O)s[nH]2)cc1)c1nc2ccccc2cc1C(=O)OCC
149 to 152 | CCC(=O)NCC[C@@H]1CCc2cc(O)c3c(c21)CCO3
128 | CNC(=O)N(OC)c1ccc(Oc2ccc3sncc3c2)c(Cl)c1
134 | COc1ccc(C=CC(=O)c2c(OC)cc(OC)cc2OC(=O)c2ccccc2)cc1
163 to 166 | O=C(NCc1ccc(C=NO)cc1Cl)C1CC1
105 to 107 | CN1C(=O)CNC2=C1C=NC(Cl)=CN2c1ccccc1
179 | O=C(O)c1cc(Cl)c(F)c(Cl)c1F
332 | O=C(NN=CC=Cc1ccc([N+](=O)[O-])o1)c1cn2ccsc2n1
212 to 214 | O=c1c2cccc3cccc(c32)c2nc3cc(C(F)(F)F)ccc3n12
212 to 214 | CC(C)(C)NC(=O)NC1(C#N)CCC1
174 to 175 | CCOC(=O)c1[nH]c2cc(Cl)cc(Cl)c2c1N(Cc1ccccc1)C(=O)c1ccccc1
78 to 80 | CCCC(=O)c1cnc2ccsc2c1Cl
160 to 162 | O=C(O)CC1ON(C(=O)OCc2ccccc2)C(=O)C1N1C(=O)c2ccccc2C1=O (configuration not stated)
227 to 229 | CCOC(=O)C1(CC(N)=O)C(=O)N2CCOc3cc(Cl)cc1c32 (configuration not stated)
152 to 153 | CS(=O)(=O)c1ccc(-c2cc(C(F)(F)F)nn2-c2ccc(C#N)cc2)cc1F

melting point [°C] | SMILES
64 | CC[C@H](NS(=O)(=O)c1ccc(OC)cc1)C(=O)OC
68 to 70 | Cc1c(C(=O)Cl)cccc1[N+](=O)[O-]
78 to 80 | CC(C)(C)c1nn(C(C)(C)C)c(N)c1C#N
223 to 224 | CC1CC(=O)NN=C1c1ccc(NC(=O)OC(C)C2CC2)cc1 (configuration not stated)
129 to 132 | Nc1nc(NC2Cc3ccccc3C2)nc2c1ncn2C1OC(CO)C(O)C1O (configuration not stated)
58 to 60 | N#Cc1ccsc1N=Cc1cccs1
43 to 44 | CCCCCCCCCCCCCCCCCC(=O)C(=O)OCC
204 to 205 | CCOCc1nc2c(N)nc3ccccc3c2n1CCN1C(C)=NOC1(C)C
78 to 81 | CCOC(=O)c1cnn2c1c(OCCCN(C)C)nc1ccccc12
315 to 317 | O=C1NCc2c1cc1ccc3c(c1c2-c1ccc(C(F)(F)F)cc1)OCO3
194 to 196 | COc1ccc2sc(C(N)=O)c(Sc3ccccc3)c2c1
122 to 125 | CSC(=Nc1ccc(Cl)c(Cl)c1)NS(C)(=O)=O
93 to 96 | CCCCCCN1N=C(c2ccc(F)cc2)c2cc(F)ccc2CS1(=O)=O
85 to 88 | CC(=O)SCC(Cc1ccccc1)C(=O)Nc1cccc(C(=O)OCCBr)c1 (configuration not stated)
110 | CN(C(=O)COc1cc(-c2ccccc2)nc2ccccc12)C1CCC1
142 to 145 | O=S(=O)(c1ccccc1)n1ccc2cc3c(cc21)OCO3
107 to 108 | Cc1ccc([N+](=O)[O-])c(C#N)c1C
103 to 104 | CC1CC(O)=CC(=O)O1 (configuration not stated)
144 to 146 | O=C(Nc1cc(Cl)cc(C(F)(F)F)c1)Oc1ccc([N+](=O)[O-])cc1
39 to 40 | CCCCCCCCCCCCCCOc1ccccc1C(=O)OC
101 to 102 | O=c1[nH]c(=O)n([C@H]2CO[C@H](CO)O2)cc1/C=C/Cl
101 to 103 | CSc1ccc(/C=C2/C(C)=C(CCO)c3cc(F)ccc32)cc1
68 to 71 | CC(Cn1ccc(-c2ccccc2)n1)C(=O)N(C)C (configuration not stated)
170 to 172 | COc1ccc(N2C(=O)N(c3cccc(C#N)c3)c3nc(Nc4cccc(CCOC(C)=O)c4)ncc3C2C)cc1 (configuration not stated)
235 to 236 | N=C(N)Nc1ncc(Cl)c2ccc(C(=O)NCCC(=O)O)cc12

SMILES | melting point [°C]
CN1CCc2cccc3c4c(n(c23)CC1)CCC4 | 128 to 130
CC(C)(C)OC(=O)c1ncn2c1[C@@H]1CCCN1C(=O)c1c(Br)cccc1-2 | 206 to 208
Cn1cc(-c2ccc3c(c2)C(C)(C)CCC3(C)C)cc1C=CC(=O)O | 165 to 166
CCCc1c(C(=O)CC(C)OC)c2ccc(C(N)=O)cc2n1Cc1cc2c(cc1Cl)OCO2 (configuration not stated) | 190 to 192
Cc1nc(CC#N)c2n1-c1ccc(Cl)cc1C(c1ccccc1Cl)=NC2 | 212 to 214
O=C(OO)c1ccc([N+](=O)[O-])cc1 | 251 to 252
NC(=O)c1nnc2n1-c1sc(Cl)cc1C(c1ccccc1Cl)=NC2 | 248 to 251
